Measurements reported in patent publication US20030114360A1 (priority 2000, published 2003).

Assays:
PrP-AP = assay type: binding
[1] = biological target: PrP cell surface receptor on COS-7 cells (ATCC CRL-1651)
[2] = biological target: PrP cell surface receptor on H4 cells (ATCC HTB-148)

## OC[C@@H](O)[C@@H](O)[C@H](O)[C@H](O)CO [mannitol]
PrP-AP
  inhibition of PrP-AP binding to cell surfaces: does not participate in the inhibition of binding

## KKRPKPGGWNT [N-term 11 mer]
PrP-AP
  inhibition of PrP-AP binding to cell surfaces by peptide: inhibited

## Copaxone
[1]
  IC50: 0.5 µM
[2]
  IC50: 0.5 µM

## GGSRYPGQGSP [control 11 mer]
PrP-AP
  inhibition of PrP-AP binding to cell surfaces by peptide: Only the peptide with the PrP amino terminal sequence inhibited
